According to patent publication US4925855A, “Imidazole derivatives and antimycotics containing them” (CL Pharma Aktiengesellschaft, priority 1986, dated 1990):
Values after ≈ are worked out from the molar mass of the structure shown. Where two headings read alike, the source gives them in different places. Each block holds one compound with its values, some of them ahead of it.

How the values were obtained:
[1] = system: Microsporum gypseum; test: MIC in serial dilution test, Microsporum gypseum; format: cell-based; conditions: Nannizzia gypsea, 336 h
Protocol: (§1) The antimycotic activities of the compounds were measured by in vitro determination of the minimum inhibitory concentration (MIC) for yeasts, molds and dermatophytes.
(§2) 6 dermatophytes, 2 yeasts and 4 molds were used for testing with fungi, as follows:
Microsporum gypseum (Mi.gyp.)
(§3) The minimum inhibitory concentration (MIC) was determined in serial dilution tests in test tubes. The volume of the liquid nutrient medium in each test tube was 4.5 ml.
(§4) The substances were dissolved in DMSO and diluted with sterile distilled water to 10 concentrations (100, 50, 25, 12.5, 6.25, 3.12, 1.56, 0.78, 0.39 and 0.19 μg/ml). 0.5 ml of each of these dilution steps was added to the liquid nutrient medium. Thus, a constant concentration of solvent in all the nutrient media was ensured, irrespective of the active compound concentration.
(§5) A comparison solution which contained only the solvent in appropriate concentration was included when carrying out each of the tests.
(§6) The individual strains were maintained on Sabouraud/beerwort agar slants and, before they were used in a test, they underwent a passage on a modified Sabouraud liquid nutrient medium. The strains were then harvested, washed and converted into a suspension of McFaerland 3 in the case of yeasts and molds and of McFaerland 4-5 in the case of dermatophytes.
(§7) The amount of material inoculated (inoculum) was 100 μl/test tube (inoculated densities: yeasts […] of the liquid nutrient medium was 6.0. After inoculation had taken place the fungi were incubated at 22° C. for 14 days.
(§8) The MIC was then determined. The concentration step at which growth was no longer visible on macroscopic inspection was used for the determination of the MIC. The comparison substance used was 1-(2-(2,4-dichlorophenyl)-2-(2,4-dichlorophenylmethoxy)ethyl)-1H-imidazoleas nitrate (compound A).

[2] = system: Candida albicans; test: MIC in serial dilution test, Candida albicans; format: cell-based; conditions: 336 h
Protocol: as §1, §2
Candida albicans (C.alb.)
as §3, §4, §5, §6, §7, §8

[3] = system: Candida tropicalis; test: MIC in serial dilution test, Candida tropicalis; format: cell-based; conditions: 336 h
Protocol: as §1, §2
Candida tropicalis (C.trop.)
as §3, §4, §5, §6, §7, §8

[4] = system: Aspergillus fumigatus; test: MIC in serial dilution test, Aspergillus fumigatus; format: cell-based
Protocol: as §1, §2
Aspergillus fumigatus (Asp.fu.)
as §3, §4, §5, §6, §7, §8

[5] = Determination of the lethal dose in mice, single oral administration; format: in vivo; conditions: for LD100: oral, administration once
Protocol: (§9) Determination of the lethal dose of 1-(2-(2,4-dichlorophenyl)-2-(3-(4-chlorophenylthio)propylamino)ethyl)-1H-imidazole dihydrochloride (compound No. 19) in mice and rats on administration once.
(§10) In each case, oral doses of 0, 500, 1,000 and 3,000 mg/kg of body weight were administered to four groups of female and male animals.

[6] = Determination of the lethal dose in rats, single oral administration; format: in vivo; conditions: for LD100: oral, administration once
Protocol: as §9, §10

[7] = Determination of the LD50 in mice by i.v. administration; format: in vivo; conditions: 12.5-100 mg/kg
Protocol: (§11) Determination of the LD50 of 1-(2-(2,4-di-chlorophenyl)-2-(3-(4-chlorophenylthio)propylamino)-ethyl)-1H-imidazole dihydrochloride (compound No. 19) in mice and rats by i.v. administration. In each case, 0 (0.9% NaCl solution), 12.5, 25.0, 50.0 and 100 mg/kg of body weight were injected i.v. into 5 groups of female and male animals.

[8] = Determination of the LD50 in rats by i.v. administration; format: in vivo; conditions: 12.5-100 mg/kg
Protocol: as §11

[9] = system: Salmonella typhimurium strains TA 1535, TA 1537, TA 1538, TA 98 and TA 100; test: Potential to cause gene mutations in Salmonella typhimurium; format: cell-based; conditions: with or without metabolic activator (S 9 mix); 10-1,000 and 3.3-333.3 μg/plate
Protocol: Compound No. 19 was investigated for its potential to cause gene mutations in five Salmonella typhimurium strains TA 1535, TA 1537, TA 1538, TA 98 and TA 100.
The following concentrations were tested, both with metabolic activator (S 9 mix) and without metabolic activator.

[10] = system: Mucor mucedo minus; test: MIC in serial dilution test, Mucor mucedo minus; format: cell-based; conditions: 336 h, pH 6, Mucor mucedo minus, pH 6.0, 22° C., 14 days, read-out: MIC values, Mu. mu-
Protocol: as §1, §2
Mucor mucedo minus (Mu.mu^-)
as §3, §4, §5, §6, §7, §8

[11] = system: Trichophyton mentagrophytes; test: MIC in serial dilution test, Trichophyton mentagrophytes; format: cell-based; conditions: 336 h, pH 6, Trichophyton mentagrophytes, pH 6.0, 22° C., 14 days, read-out: MIC values, Tri. me.
Protocol: as §1, §2
Trichophyton mentagrophytes
as §3, §4, §5, §6, §7, §8

[12] = system: Trichophyton rubrum; test: MIC in serial dilution test, Trichophyton rubrum; format: cell-based; conditions: 336 h, pH 6, Trichophyton rubrum, pH 6.0, 22° C., 14 days, read-out: MIC values, Tri. ru.
Protocol: as §1, §2
Trichophyton rubrum (Tri.ru.)
as §3, §4, §5, §6, §7, §8

[13] = system: Trichophyton verrucosum; test: MIC in serial dilution test, Trichophyton verrucosum; format: cell-based; conditions: 336 h, pH 6, Trichophyton verrucosum, pH 6.0, 22° C., 14 days, read-out: MIC values, Tri. ve.
Protocol: as §1, §2
Trichophyton verrucosum (Tri.ve.)
as §3, §4, §5, §6, §7, §8

[14] = system: Microsporum canis; test: MIC in serial dilution test, Microsporum canis; format: cell-based; conditions: 336 h, pH 6, Microsporum canis, pH 6.0, 22° C., 14 days, read-out: MIC values, Mi. can
Protocol: as §1, §2
Microsporum canis (Mi.can.)
as §3, §4, §5, §6, §7, §8

[15] = system: Epidermophyton floccosum; test: MIC in serial dilution test, Epidermophyton floccosum; format: cell-based; conditions: 336 h, pH 6, Epidermophyton floccosum, pH 6.0, 22° C., 14 days, read-out: MIC values, Ep. flo
Protocol: as §1, §2
Epidermophyton floccosum
as §3, §4, §5, §6, §7, §8

[16] = system: Mucor mucedo plus; test: MIC in serial dilution test, Mucor mucedo plus; format: cell-based; conditions: 336 h, pH 6, Mucor mucedo plus, pH 6.0, 22° C., 14 days, read-out: MIC values, Mu. mu+
Protocol: as §1, §2
Mucor mucedo plus (Mu.mu^+)
as §3, §4, §5, §6, §7, §8

[17] = system: Absidia ramosa; test: MIC in serial dilution test, Absidia ramosa; format: cell-based; conditions: Lichtheimia ramosa, 336 h, pH 6, Absidia ramosa; pH 6.0, 22° C., 14 days; read-out: MIC values, Abs. ra.
Protocol: as §1, §2
Absidia ramosa (Abs.ra.)
as §3, §4, §5, §6, §7, §8

[18] = oral, 500, 1,000 and 3,000 mg/kg

SMILES: Clc1ccc(COC(Cn2ccnc2)c2ccc(Cl)cc2Cl)c(Cl)c1 (stereo not drawn) [A, 1-(2-(2,4-dichlorophenyl)-2-(2,4-dichlorophenylmethoxy)ethyl)-1H-imidazole, reference compound]
MIC ([1]; pH 6, read-out: MIC values, Mi. gyp): 3.12 µg/mL (≈ 7.5 µM) | MIC ([2]; pH 6, read-out: MIC values, C. alb): 12.5 µg/mL (≈ 30 µM) | MIC ([3]; pH 6, read-out: MIC values, C. trop): 12.5 µg/mL (≈ 30 µM) | MIC values, Asp. fu. ([4]; Aspergillus fumigatus, pH 6.0, 22° C., 14 days): 3,12 μg/ml

SMILES: Cl.Cl.Clc1ccc(SCCCNC(Cn2ccnc2)c2ccc(Cl)cc2Cl)cc1 (stereo not drawn) [Compound No. 19, 1-(2-(2,4-dichlorophenyl)-2-(3-(4-chlorophenylthio)propylamino)ethyl)-1H-imidazole dihydrochloride]
MIC values, Asp. fu. ([4]; 20160 min, pH 6): 0,78 μg/ml | LD100 ([5]; female): > 1,000 mg/kg | LD100 ([5]; male): > 500 mg/kg | clinical signs [5, 18]: Inactivity, convulsions | LD100 ([6]; female): > 500 mg/kg | LD100 ([6]; male): > 1,000 mg/kg | clinical signs [6, 18]: Inactivity, ruffled fur, convulsions | clinical signs [7]: Inactivity, necrotic tail | clinical signs [8]: Inactivity, necrotic tail, convulsions | mutagenic activity [9]: No mutagenic activity whatever was observed

SMILES: Clc1ccc(SCCNC(Cn2ccnc2)c2ccc(Cl)cc2Cl)cc1 (stereo not drawn) [compound 3]
MIC values, Asp. fu. ([4]; 20160 min, pH 6): 6,25 μg/ml

SMILES: Clc1ccc(C(Cn2ccnc2)NCCSc2ccc(Br)cc2)c(Cl)c1 (stereo not drawn) [compound 4]
MIC values, Asp. fu. ([4]; 20160 min, pH 6): 6,25 μg/ml

SMILES: COc1ccc(SCCNC(Cn2ccnc2)c2ccc(Cl)cc2Cl)cc1 (stereo not drawn) [compound 5]
MIC values, Asp. fu. ([4]; 20160 min, pH 6): 12,5 μg/ml

SMILES: Clc1ccc(C(Cn2ccnc2)NCCSc2ccc3ccccc3c2)c(Cl)c1 (stereo not drawn) [compound 6]
MIC [10]: 12.5 µg/mL (≈ 28.3 µM)

Next, values leading:

MIC values, Asp. fu. ([4]; 20160 min, pH 6): 6,25 μg/ml
SMILES: Clc1ccc(SCCCNC(Cn2ccnc2)c2ccc(Br)cc2)cc1 (stereo not drawn) [compound 11]

MIC [11]: 0.78 µg/mL (≈ 1.8 µM) | MIC [12]: 1.56 µg/mL (≈ 3.59 µM) | MIC [13]: 0.78 µg/mL (≈ 1.8 µM) | MIC [14]: 6.25 µg/mL (≈ 14.4 µM) | MIC [15]: 0.78 µg/mL (≈ 1.8 µM) | MIC ([1]; Microsporum gypseum, pH 6.0, 22° C., 14 days, read-out: MIC values, Mi. gyp): 3.12 µg/mL (≈ 7.19 µM) | MIC ([2]; pH 6.0, 22° C., 14 days, read-out: MIC values, C. alb): 12.5 µg/mL (≈ 28.8 µM) | MIC ([3]; pH 6, Candida tropicalis, pH 6.0, 22° C., 14 days, read-out: MIC values, C. trop): 12.5 µg/mL (≈ 28.8 µM) | MIC values, Asp. fu. ([4]; 20160 min, pH 6): 3,12 μg/ml | MIC [16]: 6.25 µg/mL | MIC [10]: 6.25 µg/mL (≈ 14.4 µM) | MIC [17]: 50 µg/mL (≈ 115 µM)
SMILES: Clc1ccc(SCCNC(Cn2ccnc2)c2ccc(-c3ccccc3)cc2)cc1 (stereo not drawn) [compound 14]

MIC values, Asp. fu. ([4]; 20160 min, pH 6): 3,12 μg/ml
SMILES: Clc1ccc(C(Cn2ccnc2)NCCCSc2ccccc2)c(Cl)c1 (stereo not drawn) [compound 16]

MIC values, Asp. fu. ([4]; 20160 min, pH 6): 0,78 μg/ml
SMILES: Cc1ccc(SCCCNC(Cn2ccnc2)c2ccc(Cl)cc2Cl)cc1 (stereo not drawn) [compound 17]
